Assay results as given in PubChem BioAssay AID1259407 (Chemical Carcinogenesis Research Information System (CCRIS), 2018).
The source made the active and inactive calls. The rule behind the calls is not given here.

Tested on: CCRIS mutagenicity, Ames/micronucleus/aberration tests
Assay: CCRIS mutagenicity studies
[1] = Test System: AMES SALMONELLA TYPHIMURIUM, Strain/Indicator: TA98, Metabolic Activation: NONE, Method: PREINCUBATION
[2] = Test System: AMES SALMONELLA TYPHIMURIUM, Strain/Indicator: TA100, Metabolic Activation: NONE, Method: PREINCUBATION

O=C1C=CC(=O)C(c2ccccc2)=C1
mutagenic call [1]: inactive; negative
mutagenic call (Test System: AMES SALMONELLA TYPHIMURIUM, Strain/Indicator: TA98, Metabolic Activation: RAT, LIVER, S-9, PHENOBARBITAL AND 5,6-BENZOFLAVONE, Method: PREINCUBATION): inactive; negative
mutagenic call [2]: inactive; negative
mutagenic call (Test System: AMES SALMONELLA TYPHIMURIUM, Strain/Indicator: TA100, Metabolic Activation: RAT, LIVER, S-9, PHENOBARBITAL AND 5,6-BENZOFLAVONE, Method: PREINCUBATION): inactive; negative
mutagenic call (Test System: AMES SALMONELLA TYPHIMURIUM, Strain/Indicator: TA102, Metabolic Activation: NONE, Method: PREINCUBATION): inactive; negative
mutagenic call (Test System: AMES SALMONELLA TYPHIMURIUM, Strain/Indicator: TA102, Metabolic Activation: RAT, LIVER, S-9, PHENOBARBITAL AND 5,6-BENZOFLAVONE, Method: PREINCUBATION): inactive; negative
mutagenic call (Test System: AMES SALMONELLA TYPHIMURIUM, Strain/Indicator: TA104, Metabolic Activation: NONE, Method: PREINCUBATION): inactive; negative
mutagenic call (Test System: AMES SALMONELLA TYPHIMURIUM, Strain/Indicator: TA104, Metabolic Activation: RAT, LIVER, S-9, PHENOBARBITAL AND 5,6-BENZOFLAVONE, Method: PREINCUBATION): inactive; negative
mutagenic call (Test System: AMES SALMONELLA TYPHIMURIUM, Strain/Indicator: TA2637, Metabolic Activation: NONE, Method: PREINCUBATION): inactive; negative
mutagenic call (Test System: AMES SALMONELLA TYPHIMURIUM, Strain/Indicator: TA2637, Metabolic Activation: RAT, LIVER, S-9, PHENOBARBITAL AND 5,6-BENZOFLAVONE, Method: PREINCUBATION): inactive; negative
mutagenic call (Test System: CHINESE HAMSTER V-79, Strain/Indicator: V-79 (HGPRT)/6-THIOGUANINE, Metabolic Activation: NONE): inactive; negative

CN1CCc2cc3c(c4c2[C@H]1Cc1ccccc1-4)OCO3
mutagenic call (Test System: AMES SALMONELLA TYPHIMURIUM, Strain/Indicator: TA98, Metabolic Activation: RAT, LIVER, S-9, PHENOBARBITAL AND BETA-NAPHTHOFLAVONE, Method: PREINCUBATION): active; positive
mutagenic call (Test System: AMES SALMONELLA TYPHIMURIUM, Strain/Indicator: TA100, Metabolic Activation: RAT, LIVER, S-9, PHENOBARBITAL AND BETA-NAPHTHOFLAVONE, Method: PREINCUBATION): active; positive

Cc1cc(C)cc([N+](=O)[O-])c1
mutagenic call [1]: inactive; negative
mutagenic call (Test System: AMES SALMONELLA TYPHIMURIUM, Strain/Indicator: TA98, Metabolic Activation: RAT, LIVER, S-9, KANECHLOR 500, Method: PREINCUBATION): inactive; negative
mutagenic call [2]: inactive; negative
mutagenic call (Test System: AMES SALMONELLA TYPHIMURIUM, Strain/Indicator: TA100, Metabolic Activation: RAT, LIVER, S-9, KANECHLOR 500, Method: PREINCUBATION): inactive; negative

CCCCOC(=O)/C=C\C(=O)OCCCC
mutagenic call (Test System: AMES SALMONELLA TYPHIMURIUM, Strain/Indicator: TA97A, Metabolic Activation: NONE): inactive; negative
mutagenic call (Test System: AMES SALMONELLA TYPHIMURIUM, Strain/Indicator: TA97A, Metabolic Activation: RAT, LIVER, S-9, AROCLOR 1254): inactive; negative
mutagenic call (Test System: AMES SALMONELLA TYPHIMURIUM, Strain/Indicator: TA98, Metabolic Activation: NONE): inactive; negative
mutagenic call (Test System: AMES SALMONELLA TYPHIMURIUM, Strain/Indicator: TA98, Metabolic Activation: RAT, LIVER, S-9, AROCLOR 1254): inactive; negative
mutagenic call (Test System: AMES SALMONELLA TYPHIMURIUM, Strain/Indicator: TA100, Metabolic Activation: NONE): inactive; negative
mutagenic call (Test System: AMES SALMONELLA TYPHIMURIUM, Strain/Indicator: TA100, Metabolic Activation: RAT, LIVER, S-9, AROCLOR 1254): inactive; negative
mutagenic call (Test System: AMES SALMONELLA TYPHIMURIUM, Strain/Indicator: TA102, Metabolic Activation: NONE): inactive; negative
mutagenic call (Test System: AMES SALMONELLA TYPHIMURIUM, Strain/Indicator: TA102, Metabolic Activation: RAT, LIVER, S-9, AROCLOR 1254): inactive; negative

Clc1c(Cl)c(Cl)c2ccccc2c1Cl
mutagenic call (Test System: AMES SALMONELLA TYPHIMURIUM, Strain/Indicator: TA98, Metabolic Activation: HAMSTER, LIVER, S-9, AROCLOR 1254, Method: PREINCUBATION): inactive; negative
mutagenic call [1]: inactive; negative
mutagenic call (Test System: AMES SALMONELLA TYPHIMURIUM, Strain/Indicator: TA98, Metabolic Activation: RAT, LIVER, S-9, AROCLOR 1254, Method: PREINCUBATION): inactive; negative
mutagenic call (Test System: AMES SALMONELLA TYPHIMURIUM, Strain/Indicator: TA100, Metabolic Activation: HAMSTER, LIVER, S-9, AROCLOR 1254, Method: PREINCUBATION): inactive; negative
mutagenic call [2]: inactive; negative
mutagenic call (Test System: AMES SALMONELLA TYPHIMURIUM, Strain/Indicator: TA100, Metabolic Activation: RAT, LIVER, S-9, AROCLOR 1254, Method: PREINCUBATION): inactive; negative
mutagenic call (Test System: AMES SALMONELLA TYPHIMURIUM, Strain/Indicator: TA1535, Metabolic Activation: HAMSTER, LIVER, S-9, AROCLOR 1254, Method: PREINCUBATION): inactive; negative
mutagenic call (Test System: AMES SALMONELLA TYPHIMURIUM, Strain/Indicator: TA1535, Metabolic Activation: NONE, Method: PREINCUBATION): inactive; negative
mutagenic call (Test System: AMES SALMONELLA TYPHIMURIUM, Strain/Indicator: TA1535, Metabolic Activation: RAT, LIVER, S-9, AROCLOR 1254, Method: PREINCUBATION): inactive; negative
mutagenic call (Test System: AMES SALMONELLA TYPHIMURIUM, Strain/Indicator: TA1537, Metabolic Activation: HAMSTER, LIVER, S-9, AROCLOR 1254, Method: PREINCUBATION): inactive; negative
mutagenic call (Test System: AMES SALMONELLA TYPHIMURIUM, Strain/Indicator: TA1537, Metabolic Activation: NONE, Method: PREINCUBATION): inactive; negative
mutagenic call (Test System: AMES SALMONELLA TYPHIMURIUM, Strain/Indicator: TA1537, Metabolic Activation: RAT, LIVER, S-9, AROCLOR 1254, Method: PREINCUBATION): inactive; negative
